# Experiments:
# [1] = system: dogs; settings: approximately 10 μg/kg per minute continuous intravenous infusion; cited from earlier work
# [2] = biological target: T1, α2 adrenergic receptors (Homo sapiens, UniProt P08913); test: α2 adrenergic receptor binding, [3H]-rauwolscine, human platelets
# T1 construct: from tissue; host or cells: human platelets
# T1 sequence (P08913 1-465): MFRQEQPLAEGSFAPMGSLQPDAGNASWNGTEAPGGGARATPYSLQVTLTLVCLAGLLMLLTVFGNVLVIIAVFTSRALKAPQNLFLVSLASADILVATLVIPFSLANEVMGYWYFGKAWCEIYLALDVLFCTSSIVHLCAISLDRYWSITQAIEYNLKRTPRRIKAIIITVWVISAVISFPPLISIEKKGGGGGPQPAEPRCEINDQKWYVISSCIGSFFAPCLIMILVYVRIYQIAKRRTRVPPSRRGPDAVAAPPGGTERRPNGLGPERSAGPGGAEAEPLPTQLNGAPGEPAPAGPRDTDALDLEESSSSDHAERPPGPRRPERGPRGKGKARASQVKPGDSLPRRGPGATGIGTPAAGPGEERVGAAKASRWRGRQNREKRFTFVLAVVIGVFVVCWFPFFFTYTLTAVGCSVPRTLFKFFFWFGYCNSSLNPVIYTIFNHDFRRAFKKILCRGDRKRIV
# Excerpt: (§1) The antagonist [^3H]-rauwolscine was used as marker of the receptor, being its binding reversible, saturable and specific.
# [3] = system: rats with left ventricular dysfunction; test: Rat model of left ventricular dysfunction after coronary artery occlusion, urine catecholamine excretion; assay type: in vivo
# Experimental: Myocardial infarction (MI) was induced by left coronary artery ligation in 134 rats, and 6 were left unoperated. After two months, the survived animals with ECG evidence of MI entered a four-week treatment phase. They were randomly allocated to one of the following treatments: 1) delapril 6 mg.kg^−1.day^−1, (n=12), 2) delapril 6 mg.kg^−1.day^−1 and CHF 1024 0.33 mg.kg^−1.day^−1(n=13), 3) vehicle (0.05% ascorbic acid; n=12).
# Delapril was dissolved in drinking water at the final concentration of 0.043 mg/ml. The delapril solutions were prepared, freshly every third day and their concentration adjusted to body weight every 15 days to obtain an average dose of 6 mg.kg^−1.day^−1.
# CHF 1024 was administered continuously for four weeks through osmotic minipumps implanted subcutaneously behind the neck.
# Concentrated solutions of CHF 1024 were dissolved in 10% ascorbic acid in distilled water at a final concentration of 40 mM (mean delivery rate 0.33 mg.kg^−1.day^−1).
# At week 4 of treatment, the rats were placed in individual metabolic cages to collect 24-hour urine for measuring catecholamine excretion. […] Only rats with mean infarct size >12%, histologically determined in 6-10 serial cross-sections as percentage of LV area, were analyzed. The numbers of animals analyzed in each experimental group were 6 (vehicle), 6 (delapril alone), 8 (delapril and CHF 1024) and 6 non-operated.
# [4] = system: anesthetized rats; test: In vivo cardiovascular effects in anesthetized rats; design: species or system rat; settings: for mean arterial pressure, change from basal value: 0.69 µg/kg/min i.v.
# Experimental: Male albino rats (Sprague Dawley, 350-400 g) were anesthetized by sodium pentobarbital (60 mg/kg) and maintained by i.v. infusion (6 mg/h). The trachea was cannulated to facilitate spontaneous respiration and body temperature was maintained at 37 C. Homoiothermic Blanket Control System (Harvard, England).
# The right femoral artery was cannulated for arterial blood pressure measurement and left jugular vein or duodenum were cannulated for drug administration. Mean arterial pressure and heart rate were continuously monitored by pressure transducer and medium gain amplifier triggered by the ECG signal, respectively. […]
# CHF 1035 was administered intraduodenally (1 mg/kg).
# The response to […] was determined in the absence and in the presence of the selective β2-adrenoceptor antagonist ICI 118.551 (0.2 mg/kg i.v.) and the selective DA2-dopaminergic antagonist domperidone (0 3 mg/kg i.v.) both alone and in combination. The antagonists were administered 10 min before the i.d. drug administration.
# [5] = biological target: α2-adrenergic receptors; test: α2-adrenergic activity in isolated neuronally-stimulated rat vas deferens; settings: for IC50: isolated neuronally-stimulated rat vas deferens, read-out: IC50, 50% inhibition of the electrically induced contraction
# [6] = biological target: T2, peripheral DA2 dopaminergic receptors (Bos taurus, UniProt P20288); test: Peripheral DA2 dopaminergic binding test, [3H](-)sulpiride, bovine adrenal cortex
# T2 construct: peripheral DA2 dopaminergic receptors was tested on bovine adrenal cortex; from tissue; host or cells: bovine adrenal cortex
# T2 sequence (P20288 whole entry): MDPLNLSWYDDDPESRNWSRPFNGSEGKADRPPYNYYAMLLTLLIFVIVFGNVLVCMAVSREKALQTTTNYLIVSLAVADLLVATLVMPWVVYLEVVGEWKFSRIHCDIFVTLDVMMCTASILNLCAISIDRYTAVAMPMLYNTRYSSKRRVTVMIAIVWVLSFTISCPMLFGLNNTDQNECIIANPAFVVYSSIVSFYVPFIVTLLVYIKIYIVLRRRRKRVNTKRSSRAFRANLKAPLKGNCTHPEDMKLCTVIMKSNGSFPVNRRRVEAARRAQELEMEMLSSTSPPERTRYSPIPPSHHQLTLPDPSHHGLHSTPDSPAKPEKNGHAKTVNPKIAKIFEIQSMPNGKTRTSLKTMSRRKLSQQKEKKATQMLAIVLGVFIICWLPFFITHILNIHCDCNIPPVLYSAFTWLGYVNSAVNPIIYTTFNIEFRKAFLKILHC
# Experimental: The affinity of CHF 1024 for peripheral DA2 dopaminergic receptors was tested on bovine adrenal cortex evaluating its effect on the interaction of [^3H](-)sulpiride with the specific binding sites of this system.
# [7] = system: α2 adrenergic receptors; test: α2 adrenergic receptor binding, [3H]-rauwolscine, rat cerebral cortex; settings: for IC50: rat cerebral cortex, read-out: IC50, 50% inhibition of [3H]-rauwolscine specific binding
# Experimental: The affinity of CHF 1024 and CHF 1035 for α2, adrenergic receptors was tested on human platelets and on rat cerebral cortex.
# as §1
# Values are expressed as IC50=molar concentration of drug required for 50% inhibition of [^3H]-rauwolscine specific binding.
# [8] = biological target: peripheral DA2 dopaminergic receptors (Oryctolagus cuniculus, UniProt G1T1Q0); test: Peripheral DA2 dopaminergic activity in electrically stimulated rabbit rectococcygeus muscle; settings: for IC50: read-out: IC50, 50% inhibition of the electrically induced contraction
# peripheral DA2 dopaminergic receptors (Oryctolagus cuniculus, UniProt G1T1Q0), sequence (G1T1Q0 1-443): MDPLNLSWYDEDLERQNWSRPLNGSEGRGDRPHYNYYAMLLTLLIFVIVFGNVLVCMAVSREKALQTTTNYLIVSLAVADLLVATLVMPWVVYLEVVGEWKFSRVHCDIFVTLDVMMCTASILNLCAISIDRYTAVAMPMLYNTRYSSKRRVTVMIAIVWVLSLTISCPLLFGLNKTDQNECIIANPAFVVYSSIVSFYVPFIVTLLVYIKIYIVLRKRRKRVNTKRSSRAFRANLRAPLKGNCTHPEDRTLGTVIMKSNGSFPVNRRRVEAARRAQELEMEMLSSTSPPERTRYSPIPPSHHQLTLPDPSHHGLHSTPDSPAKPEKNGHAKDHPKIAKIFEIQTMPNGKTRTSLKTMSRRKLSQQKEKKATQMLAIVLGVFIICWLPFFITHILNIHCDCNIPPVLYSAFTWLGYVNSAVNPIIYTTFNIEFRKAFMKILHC
# Excerpt: The activity of CHF 1024 and CHF 1035 on peripheral DA2 dopaminergic receptors has been tested in the electrically stimulated rabbit rectococcygeus muscle.
# [9] = system: dopamine receptor; settings: cited from earlier work
smiles,measurement,setting,value
"Br.CNC1CCc2c(ccc(O)c2O)C1 (stereo not drawn) [5,6-dihydroxy-2-methylaminotetralin hydrobromide]",coronary blood flow,[1],substantial increase
"CNC1CCc2c(ccc(O)c2O)C1 (stereo not drawn) [CHF 1024, 5,6-dihydroxy-2-methylaminotetralin]",IC50,"[2]; human platelets, read-out: IC50, 50% inhibition of [3H]-rauwolscine specific binding",339 nM
same,affinity higher than dopamine,[2]; platelets,9 times
same,"urine norepinephrine excretion, reduced with respect to the vehicle group","[3]; CHF 1024 0.33 mg.kg^−1.day^−1 s.c. minipump added to delapril 6 mg.kg^−1.day^−1, week 4",40%
same,"mean arterial pressure, change from basal value",[4]; 5 min after infusion start,−24.0
same,"mean arterial pressure, change from basal value",[4]; 5 min after infusion stop,−12.7
same,"mean arterial pressure, change from basal value",[4]; 30 min after infusion start,−25.7
same,"mean arterial pressure, change from basal value",[4]; 30 min after infusion stop,−6.7
same,effect on mean arterial pressure,"[4]; intravenous administration, persists after infusion discontinuation",dose-dependent reduction
same,heart rate,"[4]; intravenous infusion, in spite of marked hypotension",no increase
same,IC50,[5],270 nM
same,more potent than dopamine,[5]; rat vas deferens,about 20 times
same,IC50,[6],21 nM
same,affinity for DA2 receptors higher than dopamine,[6]; bovine adrenal cortex,11 times
same,affinity higher than dopamine,[7]; cerebral cortex,15 times
same,IC50,[7],262 nM
same,effect in presence of selective DA2-antagonist domperidone,[8],competitively antagonized
same,more potent than dopamine,[8],approximately 3 times
same,IC50,[8],37.3 nM
same,dopamine receptor agonist activity in relaxing splenic artery strips,[9],inactive
"NCCc1ccc(O)c(O)c1 [DOPAMINE, dopamine, reference compound]",IC50,[5],4910 nM
same,IC50,[7],4060 nM
same,IC50,[8],99.3 nM
"CCOC(=O)[C@H](CCc1ccccc1)N[C@@H](C)C(=O)N(CC(=O)O)C1Cc2ccccc2C1 [delapril, reference compound]",urine norepinephrine excretion,"[3]; delapril alone 6 mg.kg^−1.day^−1, week 4, 24-hour urine",unaffected
